Measurements taken from patent publication US11536685B2, “High throughput assay for identifying microbial redox enzymes” (TRUSTEES OF BOSTON UNIVERSITY, priority 2020, dated 2022).
Like-named read-outs stand apart in the source and are kept apart here.

Tests used:
C. ammoniagenes MAO = test: AUR fluorescence assay in Rosetta2 (DE3) cells expressing MAO; format: cell-based
[1] = system: Rosetta2 (DE3) cells expressing MAO; test: Cell viability of Rosetta2 (DE3) cells expressing MAO; format: cell-based, E. coli
C41 cells expressing MAO = test: Cell viability of C41 cells expressing MAO; format: cell-based, E. coli; details: C41 AUR fluorescing cells expressing MAO
NicA2 [2] = molecular target: T1, NicA2 (Pseudomonas putida, UniProt F8G0P2); test: Chronoamperometric NicA2 electrochemical nicotine biosensor; format: biochemical, Pseudomonas putida S16; design: poly-histidine; made in house; host or cells: E. coli BL21 (DE3); details: for chronoamperometric response to compound alone: added in the middle of a chronoamperometric experiment
Description: Sensor Preparation: Electrochemical experiments were performed with VersaSTAT MC™ (Ametek Inc.™, Pennsylvania, Pa.). Sensors were prepared with Screen-Printed Prussian Blue/Carbon Electrode (Metrohm USA™, Riverview, Fla.). […] The sensors were allowed to dry overnight at 4° C. with no light prior to use.
Chronoamperometric responses were recorded over time, with a potential −0.2 V (versus Ag/AgCl). […] Similar experiments were performed to evaluate the selectivity of the sensor to cotinine.
The electrochemical biosensor was composed of a Screen-Printed Prussian Blue/Carbon Electrode with a Ag/AgCl reference electrode (RE). […] Chronoamperometric responses were recorded over time with a potential −0.2 V versus the RE.
The selectivity of the biosensor was evaluated by measuring the chronoamperometric response in the presence of common interferents at relevant physiological concentrations in sweat (see e.g., FIG. 22C).

nicA2 [3] = molecular target: T2, nicA2 (Pseudomonas putida, UniProt F8G0P2); test: FACS percentage of fluorescent cells on nicA2 induction; format: cell-based; details: induced with 50 μM IPTG; APEX2, AUR and nicotine present
T2 construct: expressed in transfected cells; host or cells: E. coli
T2 sequence (F8G0P2 39-482): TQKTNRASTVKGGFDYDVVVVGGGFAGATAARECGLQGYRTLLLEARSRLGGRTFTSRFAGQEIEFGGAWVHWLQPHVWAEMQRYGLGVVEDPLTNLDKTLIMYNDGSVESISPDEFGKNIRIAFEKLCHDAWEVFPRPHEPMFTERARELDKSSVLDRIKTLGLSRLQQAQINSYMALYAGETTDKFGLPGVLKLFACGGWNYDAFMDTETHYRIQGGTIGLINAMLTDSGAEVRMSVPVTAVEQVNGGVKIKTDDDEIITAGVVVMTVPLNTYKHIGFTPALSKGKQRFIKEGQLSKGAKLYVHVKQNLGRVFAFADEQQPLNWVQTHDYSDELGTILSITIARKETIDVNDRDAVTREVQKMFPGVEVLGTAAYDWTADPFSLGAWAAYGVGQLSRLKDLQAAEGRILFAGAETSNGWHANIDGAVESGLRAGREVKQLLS

NicA2 [4] = molecular target: T1, NicA2; test: AUR fluorescence of cells expressing APEX2 and NicA2; format: cell-based, Pseudomonas putida S16
candidate MRE = test: Optimized MRE assay, clone responsive to hydrocortisone; format: cell-based; details: Rosetta2 (DE3) cells, clone from mixture of seven gDNA libraries
Excerpt: Further analysis of the fluorescence cells identified two clones that expressed a candidate MRE responsive to lidocaine (FIG. 40A) and two clones that were responsive to cortisol (FIG. 40B). Additionally, the inventors also discovered one clone expressing a candidate MRE responsive to hydrocortisone (FIGS. 41A-41F).

SMILES	AUR fluorescence (C. ammoniagenes MAO)	cell viability [1]	cell viability as compared to Rosetta2 (DE3) cells (C41 cells expressing MAO)	also measured
NCCc1c[nH]c2ccccc12 [tryptamine]	produce fluorescent signal	do not decrease cell viability	decreased viability	–
CN1C(=O)CC[C@H]1c1cccnc1 [Cotinine]	–	–	–	effect upon the response to nicotine (NicA2 [2]; 200 μM nicotine solution added to solution of the compound): minimal effect
CC(C)S[C@@H]1O[C@H](CO)[C@H](O)[C@H](O)[C@H]1O [IPTG, isopropyl b-D-1-thiogalactopyranoside]	–	–	–	percentage of cells fluorescent (nicA2 [3]): 79.3%
NCC(O)c1ccc(O)cc1 (stereo not drawn) [octopamine]	produce fluorescent signal	do not decrease cell viability	decreased viability	–
c1cncc(C2=NCCC2)c1 [myosmine]	–	–	–	response to nicotine addition after NicA2 was inhibited by myosmine (NicA2 [2]): Minimal responses; chronoamperometric response to compound alone (NicA2 [2]): Minimal responses; chronoamperometric response to compound alone (NicA2 [2]; listed as Myosmine): Minimal response; response to nicotine addition after NicA2 was inhibited by myosmine (NicA2 [2]; listed as Myosmine): Minimal response; fluorescence of cells expressing APEX2 and NicA2 (NicA2 [4]): not
NCCc1ccc(O)cc1 [tyramine]	produce fluorescent signal	do not decrease cell viability	decreased viability	–
CN1CCCC1c1cccnc1 (stereo not drawn) [nicotine]	–	substantially decreased	–	time of return to baseline (NicA2 [2]; 200 μM nicotine): 6000 s; time to maximal current (NicA2 [2]; 200 μM nicotine): 4000 s; Maximal current (NicA2 [2]; 200 μM nicotine, 2 nmol NicA2, −0.2 V versus Ag/AgCl, PBS): ~250 nA; fluorescence of cells expressing APEX2 and NicA2 (NicA2 [4]): robust fluorescence
C[C@]12CCC(=O)C=C1CC[C@@H]1[C@@H]2[C@@H](O)C[C@@]2(C)[C@H]1CC[C@]2(O)C(=O)CO [hydrocortisone]	–	–	–	fluorescence over time as compared to no hydrocortisone (candidate MRE): increased fluorescence
NCc1ccccc1 [benzylamine]	produce fluorescent signal	do not decrease cell viability	–	–
